Earlier results on two molecules are cited in patent US10314832B2, “β- and γ-diketones and γ-hydroxyketones as Wnt/β-catenin signaling pathway activators” (Samumed, LLC, priority 2010, dated 2019).

The conditions of data set [1]: topical solution, patients with age-related hair loss; cited from earlier work.
Data set [2] has as its system dedifferentiated Müller glia. The conditions noted are these: photoreceptor-damaged retina; cited from earlier work.

Regarding `Nc1cc(N2CCCCC2)nc(N)[n+]1[O-]` [minoxidil], the “patients with moderate regrowth of hair” value in data set [1] was “less than 40%”.

B1: Wnt3a: Wnt ligand protein; soluble peptide agonist of LRP5 and Fzd co-receptors (protein, UniProt P56704 19-352, looked up)
Protein Wnt-3a: SYPIWWSLAVGPQYSSLGSQPILCASIPGLVPKQLRFCRNYVEIMPSVAEGIKIGIQECQHQFRGRRWNCTTVHDSLAIFGPVLDKATRESAFVHAIASAGVAFAVTRSCAEGTAAICGCSSRHQGSPGKGWKWGGCSEDIEFGGMVSREFADARENRPDARSAMNRHNNEAGRQAIASHMHLKCKCHGLSGSCEVKTCWWSQPDFRAIGDFLKDKYDSASEMVVEKHRESRGWVETLRPRYTYFKVPTERDLVYYEASPNFCEPNPETGSFGTRDRTCNVSSHGIDGCDLLCCGRGHNARAERRREKCRCVFHWCCYVSCQECTRVYDVHTCK
Take B1: in data set [2], the “increase in proliferation of dedifferentiated Müller glia” value is given as over 20 fold.
